In general, IC50 refers to the concentration needed to halve the response being measured.

SMILES strings stand for the structures.

Sequence of human PDE4D catalytic domain (Q08499 380-740 limits assumed): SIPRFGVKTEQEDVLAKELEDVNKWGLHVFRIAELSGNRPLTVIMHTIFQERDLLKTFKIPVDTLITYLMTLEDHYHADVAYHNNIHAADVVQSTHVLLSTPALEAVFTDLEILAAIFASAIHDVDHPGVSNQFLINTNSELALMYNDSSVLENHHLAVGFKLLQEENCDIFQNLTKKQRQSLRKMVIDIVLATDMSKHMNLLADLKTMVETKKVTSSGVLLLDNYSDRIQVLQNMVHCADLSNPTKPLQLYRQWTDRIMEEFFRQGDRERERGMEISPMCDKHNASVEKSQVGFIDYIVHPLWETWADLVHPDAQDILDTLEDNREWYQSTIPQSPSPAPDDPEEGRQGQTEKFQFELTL

The target in this assay is human PDE4D catalytic domain (UniProt no. Q08499) (Homo sapiens (Human), UniProt Q08499). Nature of the assay: PDE4 assay (TR-FRET, FAM-cAMP cleavage). Format: biochemical. To be noted: human PDE4D catalytic domain; molar concentration giving 50% inhibition of substrate cleavage; read-out: PDE4 IC50 range. As for the experimental part:
The human PDE4D catalytic domain (UniProt no. Q08499 [[…]]) was incubated with a mixture of non-labelled cAMP (cyclic adenosine monophosphate) and fluorescein amidite (FAM) conjugated cAMP and titrated test or reference compound. Following brief incubation the enzymatic reaction was stopped by addition of binding buffer containing nanoparticles with immobilized trivalent metal ions capable of binding 1) AMP phospho groups and 2) terbium (Tb) donor fluorophores. Subsequent excitation of the Tb donor triggers time-resolved FRET to adjacent FAM acceptor molecules resulting in light emission. In the presence of a PDE4 inhibitor, AMP generation was reduced resulting in a lower fluorescence signal. The cAMP phosphodiester is not bound by the detection system.
The results were calculated as the molar concentrations resulting in 50% inhibition of the substrate cleavage compared to controls samples, and are expressed as a range of IC50 (nM).
A general note: Time-resolved FRET reads energy transfer from a long-lived donor to a nearby acceptor.
Turning to `CCc1nn(CCCOC(=O)c2ccc(C#N)cc2)c2c1C(=O)NCC1(CCOCC1)C2` [Example 24, 3-(3-ethyl-4-oxo-spiro[6,8-dihydro-5H-pyrazolo[4,3-c]azepine-7,4′-tetrahydropyran]-1-yl)propyl 4-cyanobenzoate], the IC50 is less than 0.1 µM. To `CCc1nn(CCCOC(=O)c2ccccc2C#N)c2c1C(=O)NCC1(CCOCC1)C2` [Example 25, 3-(3-ethyl-4-oxo-spiro[6,8-dihydro-5H-pyrazolo[4,3-c]azepine-7,4′-tetrahydropyran]-1-yl)propyl 2-cyanobenzoate] belongs less than 0.1 µM; to `CCc1nn(CCCOC(=O)c2ccc(C)c(C)c2)c2c1C(=O)NCC1(CCOCC1)C2` [Example 26, 3-(3-ethyl-4-oxo-spiro[6,8-dihydro-5H-pyrazolo[4,3-c]azepine-7,4′-tetrahydropyran]-1-yl)propyl 3,4-dimethylbenzoate], less than 0.1 µM. With `CCc1nn(CCCOC(=O)c2ccc(C)cc2C)c2c1C(=O)NCC1(CCOCC1)C2` [Example 27, 3-(3-ethyl-4-oxo-spiro[6,8-dihydro-5H-pyrazolo[4,3-c]azepine-7,4′-tetrahydropyran]-1-yl)propyl 2,4-dimethylbenzoate], the concentration for half-maximal inhibition (IC50) is less than 0.1 µM. With `CCc1nn(CCCOC(=O)c2ccc(OC)cc2)c2c1C(=O)NCC1(CCOCC1)C2` [Example 28, 3-(3-ethyl-4-oxo-spiro[6,8-dihydro-5H-pyrazolo[4,3-c]azepine-7,4′-tetrahydropyran]-1-yl)propyl 4-methoxybenzoate], the IC50 is less than 0.1 µM. For the molecule `CCc1nn(CCCOC(=O)c2cccc(OC)c2)c2c1C(=O)NCC1(CCOCC1)C2` [Example 29, 3-(3-ethyl-4-oxo-spiro[6,8-dihydro-5H-pyrazolo[4,3-c]azepine-7,4′-tetrahydropyran]-1-yl)propyl 3-methoxybenzoate], the IC50 is less than 0.1 µM. With `CCc1nn(CCCOC(=O)c2ccccc2OC)c2c1C(=O)NCC1(CCOCC1)C2` [Example 30, 3-(3-ethyl-4-oxo-spiro[6,8-dihydro-5H-pyrazolo[4,3-c]azepine-7,4′-tetrahydropyran]-1-yl)propyl 2-methoxybenzoate] the figure was less than 0.1 µM; with `CCc1nn(CCCOC(=O)CCS(C)(=O)=O)c2c1C(=O)NCC1(CCOCC1)C2` [Example 31, 3-(3-ethyl-4-oxo-spiro[6,8-dihydro-5H-pyrazolo[4,3-c]azepine-7,4′-tetrahydropyran]-1-yl)propyl 3-methylsulfonylpropanoate], greater than 0.5 µM; with `CCc1nn(CCCOC(=O)c2ccc(C)c(F)c2)c2c1C(=O)NCC1(CCOCC1)C2` [Example 32, 3-(3-ethyl-4-oxo-spiro[6,8-dihydro-5H-pyrazolo[4,3-c]azepine-7,4′-tetrahydropyran]-1-yl)propyl 3-fluoro-4-methyl-benzoate], less than 0.1 µM.

As for `CCc1nn(CCCOC(=O)c2ccc(C)cc2F)c2c1C(=O)NCC1(CCOCC1)C2` [Example 33, 3-(3-ethyl-4-oxo-spiro[6,8-dihydro-5H-pyrazolo[4,3-c]azepine-7,4′-tetrahydropyran]-1-yl)propyl 2-fluoro-4-methyl-benzoate], the IC50 is less than 0.1 µM. To `CCc1nn(CCCOC(=O)c2cc(F)ccc2C)c2c1C(=O)NCC1(CCOCC1)C2` [Example 34, 3-(3-ethyl-4-oxo-spiro[6,8-dihydro-5H-pyrazolo[4,3-c]azepine-7,4′-tetrahydropyran]-1-yl)propyl 5-fluoro-2-methyl-benzoate] belongs less than 0.1 µM. On to `CCc1nn(CCCOC(=O)c2ccc(F)c(C)c2)c2c1C(=O)NCC1(CCOCC1)C2` [Example 35, 3-(3-ethyl-4-oxo-spiro[6,8-dihydro-5H-pyrazolo[4,3-c]azepine-7,4′-tetrahydropyran]-1-yl)propyl 4-fluoro-3-methyl-benzoate], for which the IC50 is less than 0.1 µM. To `CCc1nn(CCCOC(=O)c2cccc(F)c2C)c2c1C(=O)NCC1(CCOCC1)C2` [Example 36, 3-(3-ethyl-4-oxo-spiro[6,8-dihydro-5H-pyrazolo[4,3-c]azepine-7,4′-tetrahydropyran]-1-yl)propyl 3-fluoro-2-methyl-benzoate] belongs less than 0.1 µM. To `CCc1nn(CCCOC(=O)c2cc(C)ccc2F)c2c1C(=O)NCC1(CCOCC1)C2` [Example 37, 3-(3-ethyl-4-oxo-spiro[6,8-dihydro-5H-pyrazolo[4,3-c]azepine-7,4′-tetrahydropyran]-1-yl)propyl 2-fluoro-5-methyl-benzoate] belongs less than 0.1 µM; to `CCc1nn(CCCOC(=O)c2ccc(F)cc2C)c2c1C(=O)NCC1(CCOCC1)C2` [Example 38, 3-(3-ethyl-4-oxo-spiro[6,8-dihydro-5H-pyrazolo[4,3-c]azepine-7,4′-tetrahydropyran]-1-yl)propyl 4-fluoro-2-methyl-benzoate], less than 0.1 µM; to `CCc1nn(CCCOC(=O)c2c(C)cccc2F)c2c1C(=O)NCC1(CCOCC1)C2` [Example 39, 3-(3-ethyl-4-oxo-spiro[6,8-dihydro-5H-pyrazolo[4,3-c]azepine-7,4′-tetrahydropyran]-1-yl)propyl 2-fluoro-6-methyl-benzoate], less than 0.1 µM. For `CCc1nn(CCCOC(=O)c2ccccc2Cl)c2c1C(=O)NCC1(CCOCC1)C2` [Example 40, 3-(3-ethyl-4-oxo-spiro[6,8-dihydro-5H-pyrazolo[4,3-c]azepine-7,4′-tetrahydropyran]-1-yl)propyl 2-chlorobenzoate], the half-maximal inhibitory concentration (IC50) is less than 0.1 µM. With `CCc1nn(CCCOC(=O)c2cccc(Cl)c2)c2c1C(=O)NCC1(CCOCC1)C2` [Example 41, 3-(3-ethyl-4-oxo-spiro[6,8-dihydro-5H-pyrazolo[4,3-c]azepine-7,4′-tetrahydropyran]-1-yl)propyl 3-chlorobenzoate], the IC50 was less than 0.1 µM. To `CCc1nn(CCCOC(=O)c2ccc(Cl)cc2)c2c1C(=O)NCC1(CCOCC1)C2` [Example 42, 3-(3-ethyl-4-oxo-spiro[6,8-dihydro-5H-pyrazolo[4,3-c]azepine-7,4′-tetrahydropyran]-1-yl)propyl 4-chlorobenzoate] belongs less than 0.1 µM. Consider `CCc1nn(CCCOC(=O)c2cc(F)cc(F)c2)c2c1C(=O)NCC1(CCOCC1)C2` [Example 43, 3-(3-ethyl-4-oxo-spiro[6,8-dihydro-5H-pyrazolo[4,3-c]azepine-7,4′-tetrahydropyran]-1-yl)propyl 3,5-difluorobenzoate], for which the IC50 was less than 0.1 µM. With `CCc1nn(CCCOC(=O)c2ccc(F)c(F)c2)c2c1C(=O)NCC1(CCOCC1)C2` [Example 44, 3-(3-ethyl-4-oxo-spiro[6,8-dihydro-5H-pyrazolo[4,3-c]azepine-7,4′-tetrahydropyran]-1-yl)propyl 3,4-difluorobenzoate], the half-maximal inhibitory concentration (IC50) was less than 0.1 µM. For `CCc1nn(CCCOC(=O)c2cccc(F)c2F)c2c1C(=O)NCC1(CCOCC1)C2` [Example 45, 3-(3-ethyl-4-oxo-spiro[6,8-dihydro-5H-pyrazolo[4,3-c]azepine-7,4′-tetrahydropyran]-1-yl)propyl 2,3-difluorobenzoate], the IC50 was less than 0.1 µM. Regarding `CCc1nn(CCCOC(=O)c2c(F)cccc2F)c2c1C(=O)NCC1(CCOCC1)C2` [Example 46, 3-(3-ethyl-4-oxo-spiro[6,8-dihydro-5H-pyrazolo[4,3-c]azepine-7,4′-tetrahydropyran]-1-yl)propyl 2,6-difluorobenzoate], the IC50 is less than 0.1 µM. To `CCc1nn(CCCOC(=O)c2cc(F)ccc2F)c2c1C(=O)NCC1(CCOCC1)C2` [Example 47, 3-(3-ethyl-4-oxo-spiro[6,8-dihydro-5H-pyrazolo[4,3-c]azepine-7,4′-tetrahydropyran]-1-yl)propyl 2,5-difluorobenzoate] belongs less than 0.1 µM; to `CCc1nn(CCCOC(=O)C2CCC(OC)CC2)c2c1C(=O)NCC1(CCOCC1)C2` (stereo not drawn) [Example 48, 3-(3-ethyl-4-oxo-spiro[6,8-dihydro-5H-pyrazolo[4,3-c]azepine-7,4′-tetrahydropyran]-1-yl)propyl 4-methoxycyclohexane-carboxylate], 0.1 to 0.5 µM. With `CCc1nn(CCCOC(=O)C2CCC(F)(F)CC2)c2c1C(=O)NCC1(CCOCC1)C2` [Example 49, 3-(3-ethyl-4-oxo-spiro[6,8-dihydro-5H-pyrazolo[4,3-c]azepine-7,4′-tetrahydropyran]-1-yl)propyl 4,4-difluorocyclohexane-carboxylate] the figure was 0.1 to 0.5 µM. To `CCc1nn(CCCOC(=O)c2ccc(C(C)=O)cc2)c2c1C(=O)NCC1(CCOCC1)C2` [Example 50, 3-(3-ethyl-4-oxo-spiro[6,8-dihydro-5H-pyrazolo[4,3-c]azepine-7,4′-tetrahydropyran]-1-yl)propyl 4-acetylbenzoate] belongs less than 0.1 µM; to `CCc1nn(CCCOC(=O)c2cccc(C(C)=O)c2)c2c1C(=O)NCC1(CCOCC1)C2` [Example 51, 3-(3-ethyl-4-oxo-spiro[6,8-dihydro-5H-pyrazolo[4,3-c]azepine-7,4′-tetrahydropyran]-1-yl)propyl 3-acetylbenzoate], less than 0.1 µM; to `CCc1nn(CCCOC(=O)c2ccc(C#N)c(F)c2)c2c1C(=O)NCC1(CCOCC1)C2` [Example 52, 3-(3-ethyl-4-oxo-spiro[6,8-dihydro-5H-pyrazolo[4,3-c]azepine-7,4′-tetrahydropyran]-1-yl)propyl 4-cyano-3-fluoro-benzoate], less than 0.1 µM. Consider `CCc1nn(CCCOC(=O)c2cc(F)cc(C#N)c2)c2c1C(=O)NCC1(CCOCC1)C2` [Example 53, 3-(3-ethyl-4-oxo-spiro[6,8-dihydro-5H-pyrazolo[4,3-c]azepine-7,4′-tetrahydropyran]-1-yl)propyl 3-cyano-5-fluoro-benzoate], for which the IC50 is less than 0.1 µM.

The record behind these values is US10906915B2, “Substituted pyrazoloazepin-4-ones and their use as phosphodiesterase inhibitors” (LEO Pharma A/S, priority 2016, dated 2021).
